# Tests used:
# [1] = Pharmacokinetic parameters and characteristics of mirdametinib (Table A); type: in vivo, human
# [2] = test system: NF1-associated inoperable plexiform neurofibromas (PNs); test: Phase 2b trial: response of target PN by BICR volumetric MRI per REiNS criteria; type: in vivo, human; conditions: for Confirmed Objective Response Rate per REiNS criteria by BICR, n (%): 24-cycle treatment phase, BSA-based BID dose, 3 weeks on/1 week off; for Confirmed Partial Response, n (%): PR = ≥20% reduction in PN volume; for DoR ≥12 months: Kaplan-Meier based, data cut-off September 2023
# Description: Participants were screened (assessed for eligibility as described below). […] The median age was 34.5 years (range 18 to 69 years); 85% were white and 64% were female. […] The most commonly reported morbidities were pain (90%) and disfigurement or major deformity (52%).
# The median age was 10 years (range 2 to 17 years); 66% were white and 54% were female. […] The most commonly reported morbidities were pain (70%) and disfigurement or major deformity (50%).
# Study treatment was administered orally at a twice daily (BID) dose specified in the table below. Dosing was on a 28-day Cycle (4-week course) with a 3 week on/1 week off schedule. The treatment period will last for up to 24 Cycles followed by a 30-day Safety Follow-Up period.
# A partial response was defined as PN decrease ≥20% compared to baseline using centrally read MRI volumetric analysis.
# The major efficacy outcome measure was confirmed objective response rate (ORR), defined as the percentage of patients with complete response (disappearance of the target PN) or confirmed partial response (≥20% reduction in PN volume confirmed at a subsequent tumor assessment within 2-6 months during the 24-cycle treatment phase). Responses were assessed by blinded independent central review (BICR) using volumetric magnetic resonance imaging (MRI) analysis per Response Evaluation in Neurofibromatosis and Schwannomatosis (REiNS) criteria. A secondary efficacy objective was to determine the duration of response for patients who achieved a confirmed objective response.
# [3] = geometric least squares mean ratio, food effect
smiles,measurement,setting,value
"O=C(NOC[C@H](O)CO)c1ccc(F)c(F)c1Nc1ccc(I)cc1F (single isomer, unassigned) [mirdametinib]",Tmax [median (range)],[1]; Capsule,Capsule: 1.08 (0.00-4.17) hours post dose
same,Excretion: radioactivity in feces,[1]; In feces,In feces: 27%
same,Excretion: radioactivity in urine,[1]; In urine,In urine: 68%
same,Excretion: unchanged mirdametinib in urine,[1]; In urine,In urine: 0.7%
same,Excretion: unchanged mirdametinib in urine and feces,[1]; In urine and feces,In urine and feces: 9%
same,Tmax [median (range)],[1]; Tablet,Tablet: 0.83 (0.42-3.02) hours post dose
same,Food effect [GMR % (90% CI)] AUCinf,[1]; [3],"93% (90%, 96%)"
same,Food effect [GMR % (90% CI)] Cmax,[1]; [3],"57% (54%, 61%)"
same,Time to steady-state,[1]; in vivo,Approximately 6 days
same,"Confirmed Complete Response, n (%)",[2]; Adult (N = 58),0 n (%)
same,"Confirmed Objective Response Rate per REiNS criteria by BICR, n (%)",[2]; Adult (N = 58),24 (41) n (%)
same,"Confirmed Partial Response, n (%)",[2]; Adult (N = 58),24 (41) n (%)
same,DoR ≥12 months,[2]; Adult responders,18 (75%)
same,"Confirmed Complete Response, n (%)",[2]; Pediatric (N = 56),0 n (%)
same,"Confirmed Objective Response Rate per REiNS criteria by BICR, n (%)",[2]; Pediatric (N = 56),29 (52) n (%)
same,"Confirmed Partial Response, n (%)",[2]; Pediatric (N = 56),29 (52) n (%)
same,DoR ≥12 months,[2]; Pediatric responders,22 (76%)
same,median time to onset of response,[2]; adult cohort (range: 4.0 months to 19.0 months),7.8 months
same,ORR also considering confirmed objective responses after cycle 24,"[2]; adults (95% CI: 32, 59)",45%
same,median time to onset of response,[2]; pediatric cohort (range: 4.1 months to 18.8 months),7.9 months
same,ORR also considering confirmed objective responses after cycle 24,"[2]; pediatric patients (95% CI: 40, 67)",54%

# Reference: patent publication US20250387351A1 (SpringWorks Therapeutics, Inc, priority 2024, published 2025)
